Assay results published in ChEMBL document CHEMBL3879915, “Methods of inhibiting PRMT5” (2014).

Assays:
[1] = Antiproliferative activity against human Z138 cells assessed as inhibition of cell viability after 5 days by Cell-Titer Glo assay; assay type: functional, cell-based; details: Z-138, 120 h
[2] = molecular target: Protein arginine N-methyltransferase 5 (Homo sapiens, UniProt O14744); experiment: Inhibition of PRMT5 in human Z138 cells assessed as decrease in di-methyl arginine levels after 96 hrs by Western blot method; assay type: cell-based
PRMT5/MEP50 complex = PRMT5/MEP50 complex (Homo sapiens, UniProt O14744); experiment: Inhibition of recombinant human fetal brain FLAG-tagged PRMT5/full length human testis 6His-tagged MEP50 expressed in baculovirus infected insect Sf9 cells using human histone H4 (1 to 15 residues) as substrate preincubated for 30 mins followed by [3H]-SAM addition
Chain of PRMT5/MEP50 complex (O14744 whole entry, the tested form may be a part): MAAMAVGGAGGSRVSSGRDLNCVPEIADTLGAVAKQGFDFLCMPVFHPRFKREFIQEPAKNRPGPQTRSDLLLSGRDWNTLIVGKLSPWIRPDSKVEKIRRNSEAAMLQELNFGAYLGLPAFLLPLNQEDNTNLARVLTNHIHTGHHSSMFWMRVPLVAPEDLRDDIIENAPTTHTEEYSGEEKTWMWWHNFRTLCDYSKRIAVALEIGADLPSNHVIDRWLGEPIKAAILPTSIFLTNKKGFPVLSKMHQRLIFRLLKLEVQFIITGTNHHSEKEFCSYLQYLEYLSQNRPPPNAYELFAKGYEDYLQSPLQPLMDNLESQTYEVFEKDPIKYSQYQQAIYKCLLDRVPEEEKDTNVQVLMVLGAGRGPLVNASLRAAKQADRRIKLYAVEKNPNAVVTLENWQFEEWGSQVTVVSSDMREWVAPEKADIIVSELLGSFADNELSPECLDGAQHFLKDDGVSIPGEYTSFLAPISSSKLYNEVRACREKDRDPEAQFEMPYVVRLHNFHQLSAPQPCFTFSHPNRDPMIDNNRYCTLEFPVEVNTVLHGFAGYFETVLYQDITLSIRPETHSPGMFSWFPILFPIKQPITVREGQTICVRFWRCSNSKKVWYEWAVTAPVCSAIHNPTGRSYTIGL
Chain of PRMT5/MEP50 complex (Q9BQA1 whole entry, further chain, the tested form may be a part): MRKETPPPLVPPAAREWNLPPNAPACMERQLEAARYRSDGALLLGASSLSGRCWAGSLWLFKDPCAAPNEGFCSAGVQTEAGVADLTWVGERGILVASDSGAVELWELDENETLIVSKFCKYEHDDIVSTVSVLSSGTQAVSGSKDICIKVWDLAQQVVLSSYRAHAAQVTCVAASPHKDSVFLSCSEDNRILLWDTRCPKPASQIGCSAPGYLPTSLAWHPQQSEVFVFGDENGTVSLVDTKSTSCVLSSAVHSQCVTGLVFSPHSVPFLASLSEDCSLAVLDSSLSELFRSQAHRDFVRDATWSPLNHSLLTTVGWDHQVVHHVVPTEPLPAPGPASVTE

Chain of Protein arginine N-methyltransferase 5 (O14744 whole entry, the tested form may be a part): as the sequence (O14744 whole entry, the tested form may be a part) above

| Compound | EC50 [1] [nM] | EC50 [2] [nM] | IC50 (PRMT5/MEP50 complex) [nM] |
| --- | --- | --- | --- |
| CS(=O)(=O)c1cccc(-c2cccc(OCC(O)CN3CCc4ccccc4C3)c2)c1 (centres undefined) | > 20000 | 1000 to 10000 | 101 to 1000 |
| OC(COc1cccc(-c2cc(C(F)(F)F)ccc2Cl)c1)CN1CCc2ccccc2C1 (centres undefined) | 10000 to 40000 | 1000 to 10000 | 101 to 1000 |
| CN(CC(O)CN1CCc2ccccc2C1)c1cccc(CNC2CCOCC2)c1 (centres undefined) | > 20000 | 1000 to 10000 | < 100 |
| Cn1cnc2cc(-c3cccc(OCC(O)CN4CCc5ccccc5C4)c3)ccc21 (centres undefined) | 10000 to 40000 | 101 to 1000 | 101 to 1000 |
| N#Cc1ccccc1-c1cccc(OCC(O)CN2CCc3ccccc3C2)c1 (centres undefined) | 10000 to 40000 | 1000 to 10000 | 101 to 1000 |
| OC(COc1cccc(-c2ccccc2Cl)c1)CN1CCc2ccccc2C1 (centres undefined) | 10000 to 40000 | 1000 to 10000 | 101 to 1000 |
| COC(=O)c1cccc(-c2cccc(OCC(O)CN3CCc4ccccc4C3)c2)c1 (centres undefined) | > 20000 | > 20000 | 101 to 1000 |
| COc1ccc(Cl)cc1-c1cccc(OCC(O)CN2CCc3ccccc3C2)c1 (centres undefined) | > 20000 | 1000 to 10000 | 101 to 1000 |
| OC(COc1cccc(-c2ccc(C(F)(F)F)cc2C(F)(F)F)c1)CN1CCc2ccccc2C1 (centres undefined) | > 20000 | 10000 to 40000 | 101 to 1000 |
| CC1c2ccccc2CCN1CC(O)COc1cccc(-c2ccc3ncn(C)c3c2)c1 (centres undefined) | 1000 to 10000 | > 20000 | 101 to 1000 |
| CC(C)n1cnc2ccc(-c3cccc(OCC(O)CN4CCc5ccccc5C4)c3)cc21 (centres undefined) | 10000 to 40000 | 101 to 1000 | 101 to 1000 |
| CN(C)c1ncc(-c2cccc(OCC(O)CN3CCc4ccccc4C3)c2)cn1 (centres undefined) | 10000 to 40000 | 1000 to 10000 | 101 to 1000 |
| Cc1ccncc1-c1cccc(OCC(O)CN2CCc3ccccc3C2)c1 (centres undefined) | 10000 to 40000 | 101 to 1000 | 101 to 10000 |
| Cn1cnc2ccc(-c3cccc(NCC(O)CN4CCc5ccccc5C4)n3)cc21 (centres undefined) | > 20000 | 1000 to 10000 | 101 to 1000 |
| OC(COc1cccc(-c2cnc3ccccc3c2)c1)CN1CCc2ccccc2C1 (centres undefined) | 10000 to 40000 | 1000 to 10000 | 101 to 1000 |
| OC(COc1cccc(-c2ccc3ncn(-c4ccccc4)c3c2)c1)CN1CCc2ccccc2C1 (centres undefined) | > 20000 | 1000 to 10000 | 101 to 1000 |
| Cn1cnc2ccc(-c3ccnc(NCC(O)CN4CCc5ccccc5C4)c3)cc21 (centres undefined) | 1000 to 10000 | 101 to 1000 | < 100 |
| Cn1cnc2ccc(-c3cncc(NCC(O)CN4CCc5ccccc5C4)n3)cc21 (centres undefined) | > 20000 | 101 to 1000 | 101 to 1000 |
| COc1ccc(-c2cccc(OCC(O)CN3CCc4ccccc4C3)c2)c(Cl)c1 (centres undefined) | 10000 to 40000 | 1000 to 10000 | 101 to 1000 |
| OC(COc1cccc(-c2cccc3c2oc2ccccc23)c1)CN1CCc2ccccc2C1 (centres undefined) | 10000 to 40000 | 1000 to 10000 | 101 to 1000 |
| OC(COc1cccc(-c2ccc3ncn(Cc4ccccc4)c3c2)c1)CN1CCc2ccccc2C1 (centres undefined) | 10000 to 40000 | 1000 to 10000 | < 100 |
| OC(COc1ccc(C2CCCNC2)cc1)CN1CCc2ccccc2C1 (centres undefined) | 1000 to 10000 | 101 to 1000 | < 100 |
| OC(COc1cccc(-c2ccc3nn[nH]c3c2)c1)CN1CCc2ccccc2C1 (centres undefined) | 1000 to 10000 | 1000 to 10000 | 101 to 1000 |
| O=c1[nH]c2ccc(-c3cccc(OCC(O)CN4CCc5ccccc5C4)c3)cc2[nH]1 (centres undefined) | 10000 to 20000 | 101 to 20000 | 101 to 1000 |
| CC(=O)c1cccc(-c2cccc(OCC(O)CN3CCc4ccccc4C3)c2)c1 (centres undefined) | 10000 to 40000 | 1000 to 10000 | 101 to 1000 |
| Cn1ncc2cc(-c3cccc(OCC(O)CN4CCc5ccccc5C4)c3)ccc21 (centres undefined) | 10000 to 40000 | 1000 to 10000 | < 100 |
| CS(=O)(=O)c1ccc(-c2cccc(OCC(O)CN3CCc4ccccc4C3)c2)cc1 (centres undefined) | 10000 to 40000 | 1000 to 10000 | 101 to 1000 |

| Compound | EC50 [1] [nM] | EC50 [2] [nM] | IC50 (PRMT5/MEP50 complex) [nM] |
| --- | --- | --- | --- |
| Oc1cccc(-c2cccc(OCC(O)CN3CCc4ccccc4C3)c2)c1 (centres undefined) | 10000 to 40000 | 1000 to 10000 | 101 to 1000 |
| CS(=O)(=O)Nc1ccc(-c2cccc(OCC(O)CN3CCc4ccccc4C3)c2)cc1 (centres undefined) | 10000 to 40000 | 1000 to 10000 | 101 to 1000 |
| CC(Oc1cccc(CNC2CCCC2)c1)C(O)CN1CCc2ccccc2C1 (centres undefined) | 1000 to 10000 | 101 to 1000 | 101 to 1000 |
| N#Cc1ccc(-c2cccc(OCC(O)CN3CCc4ccccc4C3)c2)cc1 (centres undefined) | 10000 to 40000 | 1000 to 10000 | 101 to 1000 |
| O=C(c1cccc(-c2cccc(OCC(O)CN3CCc4ccccc4C3)c2)c1)N1CCOCC1 (centres undefined) | > 20000 | 1000 to 10000 | 101 to 1000 |
| COc1ccc(Cn2cnc3ccc(-c4cccc(OCC(O)CN5CCc6ccccc6C5)c4)cc32)cc1 (centres undefined) | 10000 to 40000 | 1000 to 10000 | 101 to 1000 |
| OC(COc1cccc(-c2ccccc2C(F)(F)F)c1)CN1CCc2ccccc2C1 (centres undefined) | > 20000 | 1000 to 10000 | 101 to 1000 |
| OC(COc1cccc(-c2ccc(C(F)(F)F)cc2Cl)c1)CN1CCc2ccccc2C1 (centres undefined) | > 20000 | 10000 to 40000 | 101 to 1000 |
| OC(COc1cccc(-c2ccc3nc[nH]c3c2)c1)CN1CCc2ccccc2C1 (centres undefined) | 10000 to 40000 | 1000 to 10000 | 101 to 1000 |
| Cn1cnc2ccc(-c3ccnc(NCC(O)CN4CCc5ccccc5C4)n3)cc21 (centres undefined) | 1000 to 10000 | 101 to 1000 | 101 to 1000 |
| Cn1cnc2ccc(-c3cccc(NCC(O)CN4CCc5ccccc5C4)c3)cc21 (centres undefined) | 1000 to 10000 | 101 to 1000 | < 100 |
| OC(COc1cccc(-c2ccc3ncn(C4CCOCC4)c3c2)c1)CN1CCc2ccccc2C1 (centres undefined) | 1000 to 10000 | 101 to 1000 | 101 to 1000 |
| Cn1ncc2ccc(-c3cc(COCC(O)CN4CCc5ccccc5C4)on3)cc21 (centres undefined) | > 20000 | 1000 to 10000 | 101 to 1000 |
| COc1ccc(-c2cccc(OCC(O)CN3CCc4ccccc4C3)c2)cc1 (centres undefined) | 10000 to 40000 | 1000 to 10000 | 101 to 1000 |
| OC(COc1cccc(-c2ccc3c(c2)OCCO3)c1)CN1CCc2ccccc2C1 (centres undefined) | 10000 to 40000 | 1000 to 10000 | 101 to 1000 |
| OC(COc1cccc(-c2ccc3cn[nH]c3c2)c1)CN1CCc2ccccc2C1 (centres undefined) | 10000 to 40000 | 1000 to 10000 | 101 to 1000 |
| OC(COc1cccc(-c2ccc3[nH]ncc3c2)c1)CN1CCc2ccccc2C1 (centres undefined) | > 20000 | 1000 to 10000 | 101 to 1000 |
| COc1ccc(-c2cccc(OCC(O)CN3CCc4ccccc4C3)c2)c(C)c1 (centres undefined) | 10000 to 40000 | 1000 to 10000 | 101 to 1000 |
| COc1cccc(-c2cccc(OCC(O)CN3CCc4ccccc4C3)c2)c1 (centres undefined) | 10000 to 40000 | 1000 to 10000 | 101 to 1000 |
| OC(COc1cccc(-c2ccc3c(c2)OCO3)c1)CN1CCc2ccccc2C1 (centres undefined) | 10000 to 40000 | 10000 to 40000 | 101 to 1000 |
| OCc1cccc(-c2cccc(OCC(O)CN3CCc4ccccc4C3)c2)c1 (centres undefined) | 10000 to 40000 | 1000 to 10000 | 101 to 1000 |
| CN(CC(O)CN1CCc2ccccc2C1)c1cccc(CNC2CCCC2)c1 (centres undefined) | 10000 to 40000 | 101 to 1000 | 101 to 1000 |
| OC(COc1cccc(-c2cccc3cccnc23)c1)CN1CCc2ccccc2C1 (centres undefined) | 10000 to 40000 | 101 to 1000 | < 100 |
| Cn1cnc2ccc(-c3cccc(OCC(O)CN4CCc5ccccc5C4)c3)cc21 (centres undefined) | 1000 to 20000 | 101 to 10000 | < 100 |
| OC(COc1cccc(-c2cccc(F)c2F)c1)CN1CCc2ccccc2C1 (centres undefined) | 10000 to 40000 | 10000 to 40000 | 101 to 1000 |
| CS(=O)(=O)c1ccccc1-c1cccc(OCC(O)CN2CCc3ccccc3C2)c1 (centres undefined) | > 20000 | 1000 to 10000 | 101 to 1000 |
